Assay results reported in patent US20200190062A1, “HETEROCYCLIC COMPOUND AND PHARMACEUTICAL COMPOSITION COMPRISING SAME” (BEYONDBIO INC., priority 2015, published 2020).
Counter-ions that a name gives are not always drawn.

What was measured:
HCT116 = experiment: Inhibition of cancer cell proliferation (MTT); format: cell-based, human
SH-SY5Y = experiment: Inhibition of cancer cell proliferation (MTT); format: cell-based, human
Summary of the method: (§1)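 72 h MTT proliferation assay; cells seeded at 3000/well (A549, SK-N-SH, SH-SY5Y, NCI-H23) and attached 16 h at 37 °C, then treated at 0.004–10 uM with 0.08% DMSO control. Absorbance at 535 nm read after 2 h MTT; GI50 from viability relative to untreated control.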

SK-N-SH = experiment: Inhibition of cancer cell proliferation (MTT); format: cell-based, human
Summary of the method: as §1

U-87MG = experiment: Inhibition of cancer cell proliferation (MTT); format: cell-based, human
Summary of the method: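 Absorbance at 535 nm of DMSO-dissolved formazan (2 h MTT) gives viability versus 0.08% DMSO-treated cells, and GI50 is derived from eight concentrations between 0.004 and 10 uM. Exposure lasts 72 h at 37 °C, 5% CO2, using 3000 cells/well in 10% FBS medium ([…] for NCI-H23, otherwise DMEM).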

CDK6/cyclinD3 = biological target: T1, CDK6/cyclinD3 (Homo sapiens, UniProt Q00534); experiment: Inhibition of CDK enzyme activity (ADP-Glo kinase assay); format: biochemical; settings: 10 uM ATP, histone H1 substrate; read-out: IC50 CDK6/cyclinD
T1 construct: purchased Merck Millipore
Protocol: (§2) Test compounds were prepared by dissolving the compounds obtained in the above Examples in dimethylsulfoxide (DMSO) at a concentration of 10 mM. The test compounds were diluted to 200 nM, 50 nM, […], 3.13 nM, 0.78 nM, and 0.2 nM and used in an enzyme reaction.
(§3) CDK enzyme reaction was conducted in a buffer containing 50 mM Tris-HCl (pH 7.5), 10 mM MgCl2, 1 mM EGTA, 1 mM EDTA, and 2 mM DTT. CDK1/cyclinB, CDK2/cylcinE, CDK5/p25, and CDK6/cyclinD3 enzymes commercially available from Merck Millipore were used for CDK1, CDK2, CDK5, and CDK6 enzymes, respectively, and CDK4/cyclinD1 enzyme commercially available from Signalchem (US) was used for CDK4. For CDK1, a reaction proceeded by adding 10 nM CDK1/cyclinB and 0.125 mg/ml histone H1 (Merck Millipore) substrate to the buffer and then adding 10 uM ATP thereto. For CDK2, a reaction was proceeded by adding 10 nM CDK2/cyclinE and 0.125 mg/ml histone H1 substrate to the buffer and then adding 10 uM ATP thereto. For CDK5, a reaction was proceeded by adding 10 nM CDK5/p25 and 0.125 mg/ml histone H1 substrate to the buffer and then adding 10 uM ATP thereto. For CDK4, a reaction was proceeded by adding 20 nM CDK4/cyclinD1 and 0.125 mg/ml Rb protein (Merck Millipore) to the buffer and then adding 10 uM ATP thereto. For CDK6, a reaction was proceeded by adding 50 nM CDK6/cyclinD3 and 0.125 mg/ml histone H1 substrate to the buffer and then adding 10 uM ATP thereto. Each enzyme reaction was incubated at 30° C. for 60 min. Then, the amount of ADP produced was measured using Victor X4 instrument (Perkin Elmer) after generating luminescence using ADP-Glo kinase assay kit (Promega, US). An inhibition effect on each enzyme was represented as a percentage of the luminescence value in the presence of the test compounds relative to the luminescence value without the test compounds. IC50 (nM) is the concentration of the compound to inhibit 50% of the enzyme activity.

CDK4/cyclinD1 = biological target: T2, CDK4/cyclinD1 (Homo sapiens, UniProt P11802); experiment: as above; format: biochemical; settings: 10 uM ATP, Rb protein substrate; read-out: IC50 CDK4/cyclinD
T2 construct: purchased Signalchem (US)
Protocol: as §2, §3

CDK5/p25 = biological target: T3, CDK5/p25 (Homo sapiens, UniProt Q00535); experiment: as above; format: biochemical; settings: 10 uM ATP, histone H1 substrate
T3 construct: purchased Merck Millipore
Protocol: as §2, §3

CDK2/cyclinE = biological target: T4, CDK2/cyclinE (Homo sapiens, UniProt P24941); experiment: as above; format: biochemical; settings: 10 uM ATP, histone H1 substrate
T4 construct: purchased Merck Millipore
Protocol: as §2, §3

CDK1/cyclinB = biological target: T5, CDK1/cyclinB (Homo sapiens, UniProt P06493); experiment: as above; format: biochemical; settings: 10 uM ATP, histone H1 substrate
T5 construct: purchased Merck Millipore
Protocol: as §2, §3

NCI-H23 = experiment: Inhibition of cancer cell proliferation (MTT); format: cell-based, human
Summary of the method: as §1

T98G = experiment: Inhibition of cancer cell proliferation (MTT); format: cell-based, human
Summary of the method: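 Plate 3000 cells/well and let them adhere for 16 h. Add compound (0.004, 0.013, 0.04, 0.12, 0.37, 1.1, 3.3, 10 uM; 0.08% DMSO) and culture for 72 h. Add MTT for 2 h, dissolve formazan in DMSO, read at 535 nm, and fit GI50.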

A549 = experiment: Inhibition of cancer cell proliferation (MTT); format: cell-based, human
Summary of the method: as §1

Tau protein = experiment: Inhibition of Tau phosphorylation (Western blot, pSer202) in SH-SY5Y cells; format: cell-based; settings: 4 hrs
Protocol: SH-SY5Y cells expressing Tau protein were cultured in DMEM containing 10% FBS. 2.5×10^6 cells were placed in a 6-well plate and incubated at 5% CO2 and 37° C. for 16 hrs. The compounds obtained in the above Examples serially diluted ⅓ from 3 uM to 0.5 nM or the compounds in a concentration of 0.3, 0.1, 0.03, 0.01, 0.003 uM were treated for 4 hrs in DMEM containing 5% FBS. After 4 hrs, the culture solution was removed, washed with PBS, and cells were lysed by adding 100 ul of lysis buffer. The lysis buffer consisted of 50 mM Tris-HCl (pH 7.5), 150 mM NaCl, 5 mM EDT, 1 mM EGTA, 50 mM NaF, 1 mM PMSF, 1 mM Na3VO4, 2.5 mM DTT, 1% Triton X-100, and Protease inhibitor (Pierce). The lysed cells were centrifuged at 10,000 rpm and 4° C. for 10 min and the proteins in the supernatant were quantified. 25 ug of the proteins were electrophoresed on a SDS-PAGE gel and transferred to PVDF (Amersharm) membrane. The PVDF membrane was immersed in T-PBS containing 10% skim milk and shaken for 1 hr at room temperature. The primary antibody, Phosph-Tau[pSer202] (Abcam), diluted 1:1500 in T-PBS solution containing 5% skim milk was reacted with the membrane at room temperature for 2 hrs. The membrane was washed with T-PBS. The secondary antibody, Anti-rabbit IgG HRP, diluted 1:5000 was added to the membrane, reacted at room temperature for 1 hr, and washed.

T5 sequence (P06493 whole entry): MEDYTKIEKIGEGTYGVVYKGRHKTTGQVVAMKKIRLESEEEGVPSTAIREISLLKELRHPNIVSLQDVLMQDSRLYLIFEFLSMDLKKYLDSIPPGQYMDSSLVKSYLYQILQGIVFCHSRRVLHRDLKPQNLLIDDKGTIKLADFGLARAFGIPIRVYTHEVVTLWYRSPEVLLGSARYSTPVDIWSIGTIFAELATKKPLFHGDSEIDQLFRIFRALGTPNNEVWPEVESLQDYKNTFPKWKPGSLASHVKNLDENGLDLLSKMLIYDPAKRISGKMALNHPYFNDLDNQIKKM
T5 sequence (P14635 whole entry partner): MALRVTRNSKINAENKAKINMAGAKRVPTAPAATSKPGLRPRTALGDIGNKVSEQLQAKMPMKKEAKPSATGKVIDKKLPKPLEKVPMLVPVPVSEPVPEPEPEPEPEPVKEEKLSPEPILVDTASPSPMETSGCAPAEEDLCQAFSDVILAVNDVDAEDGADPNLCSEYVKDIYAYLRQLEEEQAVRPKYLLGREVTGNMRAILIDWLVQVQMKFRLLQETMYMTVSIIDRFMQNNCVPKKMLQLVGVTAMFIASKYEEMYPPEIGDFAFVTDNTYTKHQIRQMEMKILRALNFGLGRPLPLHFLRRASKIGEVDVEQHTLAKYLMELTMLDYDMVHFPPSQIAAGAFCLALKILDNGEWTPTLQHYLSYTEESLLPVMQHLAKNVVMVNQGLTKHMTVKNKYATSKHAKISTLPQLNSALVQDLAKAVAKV
T1 sequence (Q00534 whole entry): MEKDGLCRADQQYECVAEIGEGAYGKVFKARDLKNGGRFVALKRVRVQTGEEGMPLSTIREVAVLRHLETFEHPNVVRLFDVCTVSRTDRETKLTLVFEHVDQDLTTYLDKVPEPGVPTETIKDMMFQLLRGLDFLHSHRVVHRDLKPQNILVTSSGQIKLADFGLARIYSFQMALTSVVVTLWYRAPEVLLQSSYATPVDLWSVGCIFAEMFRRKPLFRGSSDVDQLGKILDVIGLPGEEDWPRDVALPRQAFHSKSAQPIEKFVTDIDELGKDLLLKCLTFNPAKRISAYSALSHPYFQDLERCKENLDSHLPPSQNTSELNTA
T1 sequence (P30281 whole entry partner): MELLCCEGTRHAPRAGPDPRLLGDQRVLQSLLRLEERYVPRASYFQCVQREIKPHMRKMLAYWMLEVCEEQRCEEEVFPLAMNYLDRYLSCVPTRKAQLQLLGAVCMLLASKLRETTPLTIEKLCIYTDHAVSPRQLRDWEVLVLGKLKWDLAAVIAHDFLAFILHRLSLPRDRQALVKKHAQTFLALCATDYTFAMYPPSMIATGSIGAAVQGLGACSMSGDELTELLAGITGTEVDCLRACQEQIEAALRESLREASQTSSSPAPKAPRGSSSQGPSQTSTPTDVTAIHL
T3 sequence (Q00535 whole entry): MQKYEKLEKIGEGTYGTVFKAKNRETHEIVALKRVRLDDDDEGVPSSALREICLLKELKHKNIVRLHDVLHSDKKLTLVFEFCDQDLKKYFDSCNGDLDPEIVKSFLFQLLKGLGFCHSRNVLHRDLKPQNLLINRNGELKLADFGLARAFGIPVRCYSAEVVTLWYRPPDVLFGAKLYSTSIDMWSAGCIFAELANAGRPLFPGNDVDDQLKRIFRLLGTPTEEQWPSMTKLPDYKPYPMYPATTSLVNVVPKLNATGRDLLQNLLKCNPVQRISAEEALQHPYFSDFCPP
T3 sequence (Q15078 99-307 partner limits assumed): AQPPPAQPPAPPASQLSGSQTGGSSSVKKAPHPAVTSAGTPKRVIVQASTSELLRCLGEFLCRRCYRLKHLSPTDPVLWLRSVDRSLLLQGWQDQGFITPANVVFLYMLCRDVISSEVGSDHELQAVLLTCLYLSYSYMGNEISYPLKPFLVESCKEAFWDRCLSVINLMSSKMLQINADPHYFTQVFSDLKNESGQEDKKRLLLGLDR
T2 sequence (P11802 whole entry): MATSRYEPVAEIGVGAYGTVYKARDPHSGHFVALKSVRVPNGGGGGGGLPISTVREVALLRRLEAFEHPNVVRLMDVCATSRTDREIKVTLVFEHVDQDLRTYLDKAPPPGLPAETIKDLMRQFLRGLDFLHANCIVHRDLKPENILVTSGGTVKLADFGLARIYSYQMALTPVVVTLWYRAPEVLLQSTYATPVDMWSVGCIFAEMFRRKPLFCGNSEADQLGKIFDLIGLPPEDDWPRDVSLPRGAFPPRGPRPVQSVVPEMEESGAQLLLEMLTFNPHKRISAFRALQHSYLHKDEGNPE
T2 sequence (P24385 whole entry partner): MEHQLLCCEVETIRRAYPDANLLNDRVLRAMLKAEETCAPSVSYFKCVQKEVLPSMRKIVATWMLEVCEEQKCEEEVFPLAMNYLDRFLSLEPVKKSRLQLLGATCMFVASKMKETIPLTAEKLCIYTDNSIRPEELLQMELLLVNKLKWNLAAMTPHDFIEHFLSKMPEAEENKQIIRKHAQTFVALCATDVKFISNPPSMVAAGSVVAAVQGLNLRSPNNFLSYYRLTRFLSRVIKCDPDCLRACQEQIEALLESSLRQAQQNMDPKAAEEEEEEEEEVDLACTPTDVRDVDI

Compound: Nc1nccc(-c2nc(-c3ccncc3F)ccc2O)n1 [Example 14, 6-(2-aminopyrimidin-4-yl)-3′-fluoro-[2,4′-bipyridin]-5-ol]
- GI50 (HCT116; Homo sapiens, HCT-116, 72 h): 0.59 µM
- GI50 (SH-SY5Y; Homo sapiens, SH-SY5Y, 72 h): 0.54 µM
- GI50 (SK-N-SH; Homo sapiens, SK-N-SH, 72 h): 1.04 µM
- GI50 (U-87MG; Homo sapiens, U-87 MG, 72 h): 3.41 µM

Compound: CN1CCC(c2cc(-c3nc(-c4ccnc(N)c4F)ccc3O)nc(N)n2)CC1 [Example 34, 2′-amino-6-(2-amino-6-(1-methylpiperidin-4-yl)pyrimidin-4-yl)-3′-fluoro-[2,4′-bipyridin]-5-ol]
- IC50 (CDK6/cyclinD3): 0.176 µM
- IC50 (CDK4/cyclinD1): 0.0315 µM
- IC50 (CDK5/p25): 0.0022 µM
- IC50 (CDK2/cyclinE): 0.0022 µM
- IC50 (CDK1/cyclinB): 0.0021 µM
- GI50 (HCT116; 72 hrs): 0.02 µM
- GI50 (NCI-H23; 72 hrs): 0.07 µM
- GI50 (T98G; 72 hrs): 0.15 µM
- GI50 (U-87MG; 72 hrs): 0.03 µM
- GI50 (A549; 72 hrs): 0.04 µM
- Phosphorylation (%) of Tau (Tau protein; 0.003 uM): 103%
- Phosphorylation (%) of Tau (Tau protein; 0.01 uM): 27%
- Phosphorylation (%) of Tau (Tau protein; 0.03 uM): 13%
- Phosphorylation (%) of Tau (Tau protein; 0.1 uM): 21%
- Phosphorylation (%) of Tau (Tau protein; 0.3 uM): 21%

Compound: Nc1nccc(-c2nc(-c3cccc(O)c3)ccc2O)n1 [Example 13, 2-(2-aminopyrimidin-4-yl)-6-(3-hydroxyphenyl)pyridin-3-ol]
- GI50 (HCT116; Homo sapiens, HCT-116, 72 h): 6.97 µM
- GI50 (SH-SY5Y; Homo sapiens, SH-SY5Y, 72 h): 0.68 µM
- GI50 (SK-N-SH; Homo sapiens, SK-N-SH, 72 h): 7.22 µM
- GI50 (U-87MG; Homo sapiens, U-87 MG, 72 h): 4.6 µM

Compound: Nc1nccc(-c2cc(-c3ccnc(N)n3)c(O)cn2)n1 [Example 3, 4,6-bis(2-aminopyrimidin-4-yl)pyridin-3-ol]
- GI50 (HCT116; Homo sapiens, HCT-116, 72 h): 1.15 µM
- GI50 (SH-SY5Y; Homo sapiens, SH-SY5Y, 72 h): 0.88 µM
- GI50 (SK-N-SH; Homo sapiens, SK-N-SH, 72 h): 1.43 µM
- GI50 (U-87MG; Homo sapiens, U-87 MG, 72 h): 2.64 µM

Compound: Nc1nccc(-c2nc(-c3ccc(O)cc3F)ccc2O)n1 [Example 70, 2-(2-aminopyrimidin-4-yl)-6-(2-fluoro-4-hydroxyphenyl)pyridin-3-ol 2hydrochloride]
- GI50 (HCT116; 72 hrs): 0.53 µM
- GI50 (SH-SY5Y; 72 hrs): 0.16 µM
- GI50 (SK-N-SH; 72 hrs): 0.58 µM
- GI50 (U-87MG; 72 hrs): 1.65 µM

Compound: Nc1cccc(-c2ccc(O)c(-c3ccnc(N)n3)n2)c1 [Example 16, 6-(3-aminophenyl)-2-(2-aminopyrimidin-4-yl)pyridin-3-ol]
- GI50 (HCT116; Homo sapiens, HCT-116, 72 h): 1.33 µM
- GI50 (SH-SY5Y; Homo sapiens, SH-SY5Y, 72 h): 0.57 µM
- GI50 (SK-N-SH; Homo sapiens, SK-N-SH, 72 h): 2.91 µM
- GI50 (U-87MG; Homo sapiens, U-87 MG, 72 h): 3.6 µM

Compound: Nc1nc(-c2nc(-c3ccnc(N)c3F)ccc2O)cc(C2CCNCC2)n1 [Example 33, 2′-amino-6-(2-amino-6-(piperidin-4-yl)pyrimidin-4-yl)-3′-fluoro-[2,4′-bipyridin]-5-ol]
- IC50 (CDK6/cyclinD3): 0.24 µM
- IC50 (CDK4/cyclinD1): 0.0393 µM
- IC50 (CDK5/p25): 0.00989 µM
- IC50 (CDK2/cyclinE): 0.0037 µM
- IC50 (CDK1/cyclinB): 0.0171 µM
- GI50 (HCT116; Homo sapiens, HCT-116, 72 h): 0.05 µM
- GI50 (NCI-H23; Homo sapiens, NCI-H23, 72 h): 1.71 µM
- GI50 (T98G; Homo sapiens, T98G, 72 h): 0.26 µM
- GI50 (U-87MG; Homo sapiens, U-87 MG, 72 h): 0.15 µM
- GI50 (A549; Homo sapiens, A549, 72 h): 0.19 µM

Compound: CN(C)c1cc(-c2nc(-c3ccnc(N)c3F)ccc2O)nc(N)n1 [Example 52, 2′-amino-6-(2-amino-6-(dimethylamino)pyrimidin-4-yl)-3′-fluoro-[2,4′-bipyridin]-5-ol]
- IC50 (CDK6/cyclinD3): 0.0596 µM
- IC50 (CDK4/cyclinD1): 0.0637 µM
- IC50 (CDK5/p25): 0.0019 µM
- IC50 (CDK2/cyclinE): 0.0146 µM
- IC50 (CDK1/cyclinB): 0.0007 µM
- GI50 (HCT116; Homo sapiens, HCT-116, 72 h): 0.01 µM
- GI50 (NCI-H23; Homo sapiens, NCI-H23, 72 h): 0.03 µM
- GI50 (A549; Homo sapiens, A549, 72 h): 0.02 µM
